# Experimental data reported in patent publication US9656971B2, “COMT inhibitors” (Hoffmann-La Roche Inc., priority 2012, dated 2017).
# Where two headings read alike, the source gives them in different places.
# Molecular target: T1, Rec. human COMT (Homo sapiens, UniProt P21964)
# T1 sequence (P21964 1-271): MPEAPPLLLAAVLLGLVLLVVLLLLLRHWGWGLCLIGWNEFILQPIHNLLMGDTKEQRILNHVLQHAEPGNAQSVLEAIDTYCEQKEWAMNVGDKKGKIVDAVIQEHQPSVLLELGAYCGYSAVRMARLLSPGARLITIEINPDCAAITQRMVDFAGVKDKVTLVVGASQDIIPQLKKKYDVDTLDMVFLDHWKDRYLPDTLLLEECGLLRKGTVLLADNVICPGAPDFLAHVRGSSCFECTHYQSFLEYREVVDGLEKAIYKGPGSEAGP
# Test: COMT-Fluorescence Assay
# Format: biochemical
# Settings: rec. human COMT 25 nM, 4-Nitrocatechol-Alexa488 200 nM, SAM 500 nM
# Method: This intramolecular interaction is disturbed if the 4-Nitrocatechol is methylated. […] This increase of fluorescence intensity can be followed in a kinetic measurement. The slope in the linear range of the kinetic is calculated. An inhibitor compound decreases the slope.
# Signal [rfu/min]=(rfu(end-point)−rfu(startpoint))/incubation_time_#2
# [1] = COMT-fluorescence assay, read-out: IC50
SMILES,IC50 [1] [nM],"IC50 (IC50, COMT-fluorescence assay) [nM]"
"Cc1c(-c2cc(O)c3nc[nH]c(=O)c3c2)c(C(F)(F)F)nn1C [Example 95, 6-(1,5-Dimethyl-3-(trifluoromethyl)-1H-pyrazol-4-yl)-8-hydroxyquinazolin-4(3H)-one]",970,–
"Cn1ncc2cc(-c3cc(O)c4nc[nH]c(=O)c4c3)ccc21 [Example 96, 8-Hydroxy-6-(1-methyl-1H-indazol-5-yl)quinazolin-4(3H)-one]",30,–
"Cc1cc(C(=O)N2CCCCC2)sc1-c1cc(O)c2nc[nH]c(=O)c2c1 [Example 97, 8-Hydroxy-6-(3-methyl-5-(piperidine-1-carbonyl)thiophen-2-yl)quinazolin-4(3H)-one]",10,–
"O=c1[nH]cnc2c(O)cc(-c3ccccc3Cc3ccccc3)cc12 [Example 98, 6-(2-Benzylphenyl)-8-hydroxyquinazolin-4(3H)-one]",40,–
"O=C(c1ccccc1)c1ccccc1-c1cc(O)c2nc[nH]c(=O)c2c1 [Example 99, 6-(2-Benzoylphenyl)-8-hydroxyquinazolin-4(3H)-one]",100,–
"O=c1[nH]cnc2c(O)cc(-c3ccc(S(F)(F)(F)(F)F)cc3)cc12 [Example 100, 6-(4-Pentafluorosulfanylphenyl)-8-hydroxyquinazolin-4(3H)-one]",50,–
"O=c1[nH]cnc2c(O)cc(-c3ccc(F)cc3)c(Cl)c12 [Example 101, 5-Chloro-6-(4-fluorophenyl)-8-hydroxyquinazolin-4(3H)-one]",10,–
"O=c1[nH]cnc2c(O)cc(-c3ccc(F)cc3)c(-c3ccc(F)cc3)c12 [Example 102, 5,6-Bis(4-fluorophenyl)-8-hydroxyquinazolin-4(3H)-one]",1,–
"Cc1cc(C(=O)N2CCN(C)CC2)sc1-c1cc(O)c2nc[nH]c(=O)c2c1 [Example 103, 8-Hydroxy-6-[3-methyl-5-(4-methyl-piperazine-1-carbonyl)-thiophen-2-yl]-3H-quinazolin-4-one]",10,–
"COCc1nc(NC(=O)C(C)(C)C)ccc1-c1cc(O)c2nc[nH]c(=O)c2c1 [Example 104, N-(5-(8-Hydroxy-4-oxo-3,4-dihydroquinazolin-6-yl)-6-(methoxymethyl)pyridin-2-yl)pivalamide]",10,–
"Cc1cc(-c2c(Br)cc(O)c3nc[nH]c(=O)c23)ccn1 [Example 105, 6-Bromo-8-hydroxy-5-(2-methylpyridin-4-yl)quinazolin-4(3H)-one]",70,–
"COCc1cc(C(=O)N(CCN(C(C)C)C(C)C)C(C)C)ccc1-c1cc(O)c2nc[nH]c(=O)c2c1 [Example 106, N-(2-(Diisopropylamino)ethyl)-4-(8-hydroxy-4-oxo-3,4-dihydroquinazolin-6-yl)-N-isopropyl-3-(methoxymethyl)benzamide 2,2,2-trifluoroacetate]",20,–
"COCc1cc(CN2CCN(C(C)C)CC2)ccc1-c1cc(O)c2nc[nH]c(=O)c2c1 [Example 107, 8-Hydroxy-6-(4-((4-isopropylpiperazin-1-yl)methyl)-2-(methoxymethyl)phenyl)quinazolin-4(3H)-one tetrakis(2,2,2-trifluoroacetate)]",20,–
"CC(C)N1CCc2c(cccc2-c2cc(O)c3nc[nH]c(=O)c3c2)C1 [Example 108, 8-Hydroxy-6-(2-isopropyl-1,2,3,4-tetrahydroisoquinolin-5-yl)quinazolin-4(3H)-one 2,2,2-trifluoroacetate]",80,–
"COCc1cc(COC(=O)N2CCN(C(C)C)CC2)ccc1-c1cc(O)c2nc[nH]c(=O)c2c1 [Example 109, 4-(8-Hydroxy-4-oxo-3,4-dihydroquinazolin-6-yl)-3-(methoxymethyl)benzyl 4-isopropylpiperazine-1-carboxylate bis(2,2,2-trifluoroacetate)]",20,–
"COCc1ncccc1-c1cc(O)c2nc[nH]c(=O)c2c1 [Example 110, 8-Hydroxy-6-(2-(methoxymethyl)pyridin-3-yl)quinazolin-4(3H)-one bis(2,2,2-trifluoroacetate)]",20,–
"CN1CCN(S(=O)(=O)c2cccc(-c3cc(O)c4nc[nH]c(=O)c4c3)c2)CC1 [Example 111, 8-Hydroxy-6-[3-(4-methyl-piperazine-1-sulfonyl)-phenyl]-3#H!-quinazolin-4-one; compound with trifluoro-acetic acid]",20,–
"CC(=O)c1ccccc1-c1cc(O)c2nc[nH]c(=O)c2c1 [Example 112, 6-(2-Acetylphenyl)-8-hydroxyquinazolin-4(3H)-one]",–,170
"CC(C)(O)c1ccccc1-c1cc(O)c2nc[nH]c(=O)c2c1 [Example 113, 8-Hydroxy-6-(2-(2-hydroxypropan-2-yl)phenyl)quinazolin-4(3H)-one]",3600,–
CSCc1ccccc1-c1cc(O)c2nc[nH]c(=O)c2c1 [Example 114],40,–
"CS(=O)(=O)Cc1ccccc1-c1cc(O)c2nc[nH]c(=O)c2c1 [Example 115, 8-Hydroxy-6-(2-(methylsulfonylmethyl)phenyl)quinazolin-4(3H)-one 2,2,2-trifluoroacetate]",–,50
"CS(=O)(=O)CCc1ccccc1-c1cc(O)c2nc[nH]c(=O)c2c1 [Example 116, 8-Hydroxy-6-(2-(2-(methylsulfonyl)ethyl)phenyl)quinazolin-4(3H)-one 2,2,2-trifluoroacetate]",180,–

SMILES,IC50 [1] [nM],"IC50 (IC50, COMT-fluorescence assay) [nM]"
"O=c1[nH]cnc2c(O)cc(Br)c(Cl)c12 [Example 117, 6-Bromo-5-chloro-8-hydroxyquinazolin-4(3H)-one]",40,–
"O=c1[nH]cnc2c(O)cc(-c3ccccc3COCCC3CCN(CC(F)(F)F)CC3)cc12 [Example 118, 8-Hydroxy-6-(2-((2-(1-(2,2,2-trifluoroethyl)piperidin-4-yl)ethoxy)methyl)phenyl)quinazolin-4(3H)-one 2,2,2-trifluoroacetate]",10,–
"CS(=O)(=O)Cc1ccccc1-c1cc(O)c2nc[nH]c(=O)c2c1Cl [Example 119, 5-Chloro-8-hydroxy-6-(2-(methylsulfonylmethyl)phenyl)quinazolin-4(3H)-one]",610,–
"O=c1[nH]cnc2c(O)cc(-c3ccccc3COCCC3CCN(CC(F)(F)F)CC3)c(Cl)c12 [Example 120, 5-Chloro-8-hydroxy-6-(2-((2-(1-(2,2,2-trifluoroethyl)piperidin-4-yl)ethoxy)methyl)phenyl)quinazolin-4(3H)-one 2,2,2-trifluoroacetate]",90,–
"O=c1[nH]cnc2c(O)cc(-c3ccccc3COCCN3CCN(CC(F)(F)F)CC3)cc12 [Example 121, 8-Hydroxy-6-(2-((2-(4-(2,2,2-trifluoroethyl)piperazin-1-yl)ethoxy)methyl)phenyl)quinazolin-4(3H)-one 2,2,2-trifluoroacetate]",30,–
"O=c1[nH]cnc2c(O)cc(-c3ccc(F)cc3)c(Br)c12 [Example 122, 5-Bromo-6-(4-fluorophenyl)-8-hydroxyquinazolin-4(3H)-one]",10,–
"O=c1[nH]cnc2c(O)c(F)c(-c3ccc(F)cc3)c(-c3ccc(F)cc3)c12 [Example 123, 7-Fluoro-5,6-bis(4-fluorophenyl)-8-hydroxyquinazolin-4(3H)-one]",10,–
"O=c1[nH]cnc2c(O)c(F)cc(-c3ccc(F)cc3)c12 [Example 124, 7-Fluoro-5-(4-fluorophenyl)-8-hydroxyquinazolin-4(3H)-one]",200,–
"O=c1[nH]cnc2c(O)cc(-c3ccc(F)cc3)cc12 [Example 125, 6-(4-Fluorophenyl)-8-hydroxyquinazolin-4(3H)-one]",20,–
"O=c1[nH]cnc2c(O)cc(Br)cc12 [Example 126, 6-Bromo-8-hydroxyquinazolin-4(3H)-one]",140,–
"Cc1cc(F)ccc1-c1cc(O)c2nc[nH]c(=O)c2c1 [Example 127, 6-(4-Fluoro-2-methylphenyl)-8-hydroxyquinazolin-4(3H)-one]",20,–
"O=c1[nH]cnc2c(O)cc(-c3ccccc3)cc12 [Example 128, 8-Hydroxy-6-phenylquinazolin-4(3H)-one]",20,–
"O=c1[nH]cnc2c(O)cc(-c3ccc(O)cc3)cc12 [Example 129, 8-Hydroxy-6-(4-hydroxyphenyl)quinazolin-4(3H)-one]",–,30
"Cc1ccc(-c2cc(O)c3nc[nH]c(=O)c3c2)cc1 [Example 130, 8-Hydroxy-6-p-tolylquinazolin-4(3H)-one]",–,30
"O=c1[nH]cnc2c(O)cc(-c3ccc(Cl)cc3)cc12 [Example 131, 6-(4-Chlorophenyl)-8-hydroxyquinazolin-4(3H)-one]",–,40
"O=c1[nH]cnc2c(O)cc(-c3ccccc3Cl)cc12 [Example 132, 6-(2-Chlorophenyl)-8-hydroxyquinazolin-4(3H)-one]",–,20
"O=c1[nH]cnc2c(O)cc(-c3ccc(F)cc3F)cc12 [Example 133, 6-(2,4-Difluorophenyl)-8-hydroxyquinazolin-4(3H)-one]",–,20
"Cc1cc(-c2cc(O)c3nc[nH]c(=O)c3c2)ccn1 [Example 134, 8-Hydroxy-6-(2-methylpyridin-4-yl)quinazolin-4(3H)-one]",10,–
"COc1ccc(-c2cc(O)c3nc[nH]c(=O)c3c2)cc1 [Example 135, 8-Hydroxy-6-(4-methoxy-phenyl)-3H-quinazolin-4-one]",–,10
"Cc1c(Br)cc2c(=O)[nH]cnc2c1O [Example 136, 6-Bromo-8-hydroxy-7-methylquinazolin-4(3H)-one]",3210,–
"O=c1[nH]cnc2c(O)cc(I)cc12 [Example 137, 8-Hydroxy-6-iodo-3H-quinazolin-4-one]",60,–
